Test [1] deals with T1, hCE1 (Homo sapiens, UniProt P23141).
T1 sequence (P23141 18-567): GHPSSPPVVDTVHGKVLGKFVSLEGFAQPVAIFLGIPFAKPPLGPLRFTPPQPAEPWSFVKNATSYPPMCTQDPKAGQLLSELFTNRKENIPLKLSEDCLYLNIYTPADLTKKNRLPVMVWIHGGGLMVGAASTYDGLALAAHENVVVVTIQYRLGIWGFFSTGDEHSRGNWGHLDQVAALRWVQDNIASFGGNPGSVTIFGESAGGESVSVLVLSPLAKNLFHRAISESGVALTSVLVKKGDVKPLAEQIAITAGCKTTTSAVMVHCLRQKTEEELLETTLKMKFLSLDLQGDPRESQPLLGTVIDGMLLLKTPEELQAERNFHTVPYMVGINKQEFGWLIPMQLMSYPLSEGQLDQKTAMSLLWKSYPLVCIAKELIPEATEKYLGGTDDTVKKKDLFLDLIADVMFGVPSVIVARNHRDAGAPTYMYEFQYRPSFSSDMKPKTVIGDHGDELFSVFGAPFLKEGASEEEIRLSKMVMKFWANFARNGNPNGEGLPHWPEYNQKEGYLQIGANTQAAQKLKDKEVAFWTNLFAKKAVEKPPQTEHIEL
Briefly: hCE1 inhibition assay, DME hydrolysis in human liver microsomes.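 Note: carboxylesterase inhibition read out as probe hydrolysis, with DME serving as hCE1 substrate and DDAB as hCE2 substrate, in DMSO below 2% (V/V).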 Format: biochemical. Also on record: tissue Celsis (Shanghai, China); host or cells: human liver microsomes (HLM). On the technique in general: Liver microsomes are vesicles of endoplasmic reticulum, rich in cytochrome P450 enzymes.
Protocol: (§1) All fluorescence-based assays were performed on Synergy H^1 Hybrid Multi-Mode Microplate Reader (BioTek, USA).
(§2) The inhibitory effects toward CEs were assayed using DME and DDAB as the specific probe substrates for hCE1 and hCE2, respectively. […] Control incubations without BNPP were also performed. After incubation, ice-cold acetonitrile (equal volume of incubation mixture, 200 μL) was added to terminate the reaction. The mixture was then centrifuged at 20,000 g for 20 min at 4°C. All these compounds dissolved in DMSO, and the final concentration of DMSO was <2% (V/V). Aliquots of the supernatant were then taken for further microplate reader analyses. […] First, each of the potential esterase inhibitors was pre-incubated with HLM at 37°C for 10 min with shaking in microplate reader. Then DME was added to start the reaction. After incubation at 37°C for 10 min in a shaking bath, LDR (equal volume of incubation mixture, 50 μL) was added to terminate the reaction, and luminescence measurements were conducted as described above.

The target of test [2] is T2, hCE2 (Homo sapiens, UniProt O00748).
T2 construct: tissue Celsis (Shanghai, China); host or cells: human liver microsomes (HLM)
T2 sequence (O00748 27-559): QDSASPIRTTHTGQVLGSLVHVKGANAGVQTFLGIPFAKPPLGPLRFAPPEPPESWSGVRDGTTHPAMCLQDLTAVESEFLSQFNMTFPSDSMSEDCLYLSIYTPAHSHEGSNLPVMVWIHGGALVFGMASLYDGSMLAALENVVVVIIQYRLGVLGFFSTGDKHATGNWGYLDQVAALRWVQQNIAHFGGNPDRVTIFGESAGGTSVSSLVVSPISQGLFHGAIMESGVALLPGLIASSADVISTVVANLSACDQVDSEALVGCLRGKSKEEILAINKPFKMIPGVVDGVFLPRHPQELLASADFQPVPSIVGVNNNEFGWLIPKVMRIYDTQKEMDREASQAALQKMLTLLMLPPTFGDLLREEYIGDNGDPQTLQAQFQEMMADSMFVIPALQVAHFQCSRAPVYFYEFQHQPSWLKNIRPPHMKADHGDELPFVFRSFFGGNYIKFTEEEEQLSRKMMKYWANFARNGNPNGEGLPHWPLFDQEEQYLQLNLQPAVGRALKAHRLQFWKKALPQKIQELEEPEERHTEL
Briefly: hCE2 inhibition assay, DDAB hydrolysis in human liver microsomes. The format is biochemical.
Protocol: as §1, §2

Where [3] appears, read: DME as probe substrate, HLM, averages of at least three experiments, read-out: IC50 (hCE1).
The mark [4] stands for this setting: log of the experimental IC50 in μM, used for 3D-QSAR.
Setting [5] is: DDAB as probe substrate, HLM, averages of at least three experiments, read-out: IC50 (hCE2).

Like-named read-outs stand apart in the source and are kept apart here.

The term IC50 denotes the point on the concentration scale where inhibition reaches its midpoint. For the compound `CC1(C)CC[C@]2(C(=O)O)CC[C@]3(C)C(=CC[C@@H]4[C@@]5(C)CC[C@H](O)C(C)(C)[C@@H]5CC[C@]43C)[C@@H]2C1` [Compound 1, oleanolic acid], in test [1] (setting [3]), the IC50 turned out to be 0.28 µM. In addition, the “Observed Log(IC50_hCE1)” value in test [1] (setting [4]) is -0.5528 μM.
With `C[C@H]1[C@H](C)CC[C@]2(C(=O)O)CC[C@]3(C)C(=CC[C@@H]4[C@@]5(C)CC[C@H](O)C(C)(C)[C@@H]5CC[C@]43C)[C@H]12` [Compound 2, ursolic acid], the half-maximal inhibitory concentration (IC50) in test [1] (setting [3]) was determined as 0.24 µM. In addition, the “Observed Log(IC50_hCE1)” value in test [1] (setting [4]) is given as -0.6198 μM.
For `CC1(C)CCC2(C(=O)O)C(O)CC3(C)C(=CCC4C5(C)CC(O)C(O)C(C)(CO)C5CCC43C)C2C1` (stereo not drawn) [Compound 3, polygalacic acid], the IC50 was over 100 µM in test [2] (setting [5]) and 64.7 µM in test [1] (setting [3]). Also, the “Observed Log(IC50_hCE1)” value in test [1] (setting [4]) stood at 1.811 μM.
Consider `CC1(C)[C@@H](O)CC[C@]2(C)[C@H]3C(=O)C=C4[C@@H]5C[C@@](C)(C(=O)O)CC[C@]5(C)CC[C@@]4(C)[C@]3(C)CC[C@@H]12` [Compound 4, glycyrrhetic acid], for which the half-maximal inhibitory concentration (IC50) in test [1] (setting [3]) came out at 13 µM. Also, in test [1] (setting [4]), the “Observed Log(IC50_hCE1)” value is 1.1126 μM.
For `C[C@H]1[C@H](C)CC[C@]2(C)CC[C@]3(C)C(=CC[C@@H]4[C@@]5(C)CC[C@@H](O)[C@](C)(C(=O)O)[C@@H]5CC[C@]43C)[C@H]12` [Compound 5, β-boswellic acid], the IC50 in test [1] (setting [3]) is over 400 µM.
Take `C[C@H]1[C@H](C)CC[C@]2(C)CC[C@]3(C)C(=CC(=O)[C@@H]4[C@@]5(C)CC[C@@H](O)[C@](C)(C(=O)O)[C@@H]5CC[C@]43C)[C@H]12` [Compound 6, 11-keto-β-boswellic acid]: in test [1] (setting [3]), the IC50 turned out to be 124 µM. The “Observed Log(IC50_hCE1)” value in test [1] (setting [4]) is on record as 2.092 μM.
With `CC1=C(O)C(=O)C=C2C1=CC=C1[C@@]2(C)CC[C@@]2(C)[C@@H]3C[C@](C)(C(=O)O)CC[C@]3(C)CC[C@]12C` [Compound 7, celastrol], the half-inhibitory concentration (IC50) in test [1] (setting [3]) came to 4.43 µM. For the same compound, in test [1] (setting [4]), the “Observed Log(IC50_hCE1)” value is on record as 0.6464 μM.
Take `CC(C)=CCCC(C)(O)C1CCC2(C)C1C(O)CC1C3(C)CCC(O)C(C)(C)C3CCC12C` (stereo not drawn) [Compound 8]: the half-maximal inhibitory concentration (IC50) in test [1] (setting [3]) is over 500 µM.
Same read-out and setting: the same measure for `CC(C)=CCCC(C)(O)C1CCC2(C)C1C(O)CC1C3(C)CCC(O)C(C)(C)C3C(O)CC12C` (stereo not drawn) [Compound 9]: over 500 µM.
Take `C=C(CCC(C(=O)O)C1C(O)CC2(C)C3=C(CCC12C)C1(C)CCC(OC(C)=O)C(C)(C)C1CC3)C(C)C` (stereo not drawn) [Compound 10]: the IC50 in test [1] (setting [3]) was determined as 21.7 µM. For the same compound, the “Observed Log(IC50_hCE1)” value in test [1] (setting [4]) came out at 1.337 μM.
`C=C(CCC(C(=O)O)C1C(O)CC2(C)C3=CCC4C(C)(CCC(OC(C)=O)C4(C)C)C3=CCC12C)C(C)C` (stereo not drawn) [Compound 11]: the half-maximal inhibitory concentration (IC50) is over 100 µM in test [2] (setting [5]) and 27.6 µM in test [1] (setting [3]). For the same compound, the “Observed Log(IC50_hCE1)” value in test [1] (setting [4]) was 1.441 μM.
As to `C=C(CCC(C(=O)O)C1C(O)CC2(C)C3=CCC4C(C)(C)C(=O)CCC4(C)C3=CCC12C)C(C)C` (stereo not drawn) [Compound 12], the IC50 in test [2] (setting [5]) was over 100 µM; in test [1] (setting [3]), 58.6 µM. The “Observed Log(IC50_hCE1)” value in test [1] (setting [4]) was 1.7679 μM.
Take `C[C@H](CC(=O)C[C@@H](C)[C@H]1C[C@H](O)[C@@]2(C)C3=C(C(=O)C[C@]12C)[C@@]1(C)CCC(=O)C(C)(C)[C@@H]1C[C@@H]3O)C(=O)O` [Compound 13]: the figures for the concentration for half-maximal inhibition (IC50) in test [2] and in test [1] were over 100 µM and over 400 µM, respectively.
With `C[C@H](CC(=O)C[C@@H](C)[C@H]1CC(=O)[C@@]2(C)C3=C(C(=O)C[C@]12C)[C@@]1(C)CC[C@H](O)C(C)(C)[C@@H]1C[C@@H]3O)C(=O)O` [Compound 14], the IC50 in test [2] (setting [5]) was over 100 µM; in test [1] (setting [3]), over 400 µM.
Consider `CC1(C)CCC2(C(=O)O)CCC3(C)C(=CCC4C5(C)CCC(=O)C(C)(C)C5CCC43C)C2C1` (stereo not drawn) [Compound 15, 3-oxo-olean-12-en-28-oic acid], for which, in test [2] (setting [5]), the IC50 is 16.1 µM. In test [1], the “Observed Log(IC50_hCE1)” value is -0.8861 μM and the Selectivity came out at 123.07. Also, the IC50 in test [1] (setting [3]) came to 0.13 µM.
`CC1(C)CCC2(CO)CCC3(C)C(=CCC4C5(C)CCC(O)C(C)(C)C5CCC43C)C2C1` (stereo not drawn) [Compound 16, 3β-olean-12-ene-3,28-diol]: the 50% inhibitory concentration (IC50) is 6.12 µM in test [2] (setting [5]) and 2.41 µM in test [1] (setting [3]). Besides, in test [1] (setting [4]), the “Observed Log(IC50_hCE1)” value stood at 0.382 μM.
On the same counts, the results for `COC(=O)C12CCC(C)(C)CC1C1=CCC3C4(C)CCC(O)C(C)(C)C4CCC3(C)C1(C)CC2` (stereo not drawn) [Compound 17, 3β-hydroxy-olean-12-en-28-oic acidmethyl ester] are 5.7 µM, 6.23 µM and 0.7945 μM.
In the case of `CC1(C)CCC2(C(N)=O)CCC3(C)C(=CCC4C5(C)CCC(O)C(C)(C)C5CCC43C)C2C1` (stereo not drawn) [Compound 18, 3β-hydroxy-olean-12-en-28-amide], the results for the IC50 in test [2] (setting [5]) and in test [1] (setting [3]) were 4.11 µM and 3.21 µM, respectively. In addition, in test [1] (setting [4]), the “Observed Log(IC50_hCE1)” value is listed as 0.5065 μM.
Taken in the same sequence, the figures for `CC(=O)OC1CCC2(C)C(CCC3(C)C2CC=C2C4CC(C)(C)CCC4(C(=O)O)CCC23C)C1(C)C` (stereo not drawn) [Compound 19, 3β-O-acetyl-olean-12-en-28-oic acid] were 10.2 µM, 0.19 µM and -0.7212 μM.
Turning to `CC1(C)CCC2(C(=O)O)CCC3(C)C(=CCC4C5(C)CCC(OC(=O)CCC(=O)O)C(C)(C)C5CCC43C)C2C1` (stereo not drawn) [Compound 20, 3β-O-(β-carboxypropionyl)-olean-12-en-28-oic acid], the figures for the 50% inhibitory concentration (IC50) in test [2] (setting [5]) and in test [1] (setting [3]) were 56 µM and 0.017 µM, respectively. In test [1] (hCE1 versus hCE2, values of the text), the “selectivity over hCE2” value is reported as 3296 fold. Also, the “Observed Log(IC50_hCE1)” value in test [1] (setting [4]) is listed as -1.77 μM.
In the case of `CC1CCC2(C(=O)O)CCC3(C)C(=CCC4C5(C)CCC(=O)C(C)(C)C5CCC43C)C2C1C` (stereo not drawn) [Compound 21, 3-oxo-urs-12-en-28-oic acid], the half-maximal inhibitory concentration (IC50) in test [2] (setting [5]) is 9.56 µM; in test [1] (setting [3]) it was 0.037 µM. The “Observed Log(IC50_hCE1)” value in test [1] (setting [4]) was -1.4318 μM.
Taken in the same sequence, the figures for `COC(=O)C12CCC(C)C(C)C1C1=CCC3C4(C)CCC(O)C(C)(C)C4CCC3(C)C1(C)CC2` (stereo not drawn) [Compound 23, 3β-hydroxy-urs-12-en-28-oic acid methyl ester] were 11.9 µM, 1.83 µM and 0.2625 μM.
Taken in the same sequence, the figures for `COC(=O)C12CCC(C)C(C)C1C1=CCC3C4(C)CCC(=O)C(C)(C)C4CCC3(C)C1(C)CC2` (stereo not drawn) [Compound 24, 3-oxo-urs-12-en-28-oic acid methyl ester] were over 100 µM, 0.9 µM and -0.04576 μM.
Regarding `COC(=O)C12CCC(C)C(C)C1C1=CC(=O)C3C4(C)CCC(=O)C(C)(C)C4CCC3(C)C1(C)CC2` (stereo not drawn) [Compound 25, 3,11-dioxo-urs-12-en-28-oic acid methyl ester], the IC50 in test [2] (setting [5]) was 11.9 µM; in test [1] (setting [3]), 33.2 µM. The “Observed Log(IC50_hCE1)” value in test [1] (setting [4]) stood at 1.521 μM.
`CC1(C(=O)O)CCC2(C)CCC3(C)C(=CCC4C5(C)CCC(O)C(C)(C)C5CCC43C)C2C1` (stereo not drawn) [Compound 26]: the IC50 in test [1] (IC50 (hCE1), DME as probe substrate, HLM, averages of at least three experiments) worked out at 8.94 µM. Also, the “Observed Log(IC50_hCE1)” value in test [1] (setting [4]) turned out to be 0.9513 μM.
On to `CC1(C(=O)O)CCC2(C)CCC3(C)C(=CCC4C5(C)CCC(OC(=O)CCC(=O)O)C(C)(C)C5CCC43C)C2C1` (stereo not drawn) [Compound 27, 3β-O-(β-carboxypropionyl)-olean-12-en-30-oic acid], for which the results for the IC50 in test [2] (setting [5]) and in test [1] (setting [3]) were 3.16 µM and 6.94 µM, respectively. The “Observed Log(IC50_hCE1)” value in test [1] (setting [4]) is recorded as 0.8414 μM.
`O=[N+]([O-])c1ccc(OP(=O)(O)Oc2ccc([N+](=O)[O-])cc2)cc1` [Compound 28, Bis-p-nitrophenyl phosphate, reference compound]: the IC50 in test [1] (setting [3]) was 0.031 µM.

(Values after publication PMC5491650, “Structure-Activity Relationships of Pentacyclic Triterpenoids as Potent and Selective Inhibitors against Human Carboxylesterase 1” (Frontiers in Pharmacology, 2017).)
